Entries after “also recorded” stand apart in the source; their conditions may differ.
Tests used:
[1] = test system: triple-negative breast cancer; design: method as in doi:10.1158/1538-7445.AM2015-CT325; conditions: veliparib in combination with irinotecan; cohort with germline BRCA mutation; cited from earlier work
[2] = test system: patients with advanced solid tumours; test: Treatment-emergent adverse events (NCI CTCAE version 4.0); assay type: in vivo, human
Excerpt: The sample size was based on clinical justification.

[3] = test system: patients with advanced solid tumours; design: method as in PMID 26842236; conditions: veliparib 40 mg BID days 1–14 of a 21-day cycle with irinotecan 100 mg/m^2 day 1 and 8; cited from earlier work
[4] = Veliparib pharmacokinetics, cycle 1 day 15; assay type: in vivo, human; conditions: co-administered with FOLFIRI; 10–270 mg BID
Excerpt: In dose-escalation cohorts, blood samples were collected on day 15 of cycle 1 for veliparib PK, and on days 1 and 15 of cycle 1 for PK assessment of the FOLFIRI components irinotecan, SN-38, folinic acid (leucovorin), and 5-FU.

[5] = test system: patients with advanced solid tumours
Excerpt: This phase 1 open-label, multicentre, dose-escalation, and safety expansion study evaluated veliparib in combination with bimonthly FOLFIRI in patients with advanced solid tumours. The primary objectives were to determine the maximum tolerated dose (MTD) and establish the recommended phase 2 dose (RP2D) of the combination therapy. Secondary objectives were to assess the safety and tolerability, PK profile, and exploratory efficacy of the combination for each of the FOLFIRI regimens. Patients received veliparib and bimonthly FOLFIRI in 28-day cycles. Veliparib was administered on days 15–19 in cycle 1 and on days 1–5 and 15–19 in subsequent cycles (Fig. 1). Patients with stable disease or better status could continue veliparib and bimonthly FOLFIRI at the investigator’s discretion until progressive disease (PD), unacceptable toxicity, or FOLFIRI discontinuation. The trial was registered with the ClinicalTrials.gov registry (NCT01123876) and was approved by appropriate independent ethics committees/institutional review boards prior to initiation. The study was performed in accordance with the 1964 Declaration of Helsinki and its later amendments. Written informed consent was obtained from all patients before study enrollment.
Dose escalation occurred in three parts to evaluate the MTD/RP2D of three different bimonthly FOLFIRI regimens in combination with veliparib (Fig. 1). A minimum of three patients per dose level were included for dose-toxicity modeling. In part 1, dose escalation began with veliparib twice daily (BID) on days 15–19 of cycle 1 (to allow the determination of single-agent PK for irinotecan, the active metabolite of irinotecan (SN-38), folinic acid, and 5-FU on cycle 1 day 1). In parts 2 and 3, dose escalation began with veliparib BID on day 15 of cycle 1. The differences in the dosing schedules of parts 1, 2, and 3 relate to dosing of irinotecan and 5-FU, and are detailed in Fig. 1. In all parts, veliparib continued to be administered on days 1–5 and 15–19 of each subsequent 28-day cycle. […]

[6] = veliparib plus FOLFIRI, Combined RP2D n = 31, all grades
[7] = veliparib plus FOLFIRI, Combined RP2D n = 31, grade 3/4
[8] = veliparib plus FOLFIRI, Part 1 n = 67, all grades
[9] = veliparib plus FOLFIRI, Part 1 n = 67, grade 3/4
[10] = veliparib plus FOLFIRI, Parts 2 and 3 n = 25, all grades
[11] = veliparib plus FOLFIRI, Parts 2 and 3 n = 25, grade 3/4
[12] = veliparib plus FOLFIRI, Total n = 92, all grades
[13] = veliparib plus FOLFIRI, Total n = 92, grade 3/4
[14] = veliparib plus FOLFIRI, all treated patients (92)
[15] = veliparib plus FOLFIRI, all treated patients (92), any grade

## C[C@]1(c2nc3c(C(N)=O)cccc3[nH]2)CCCN1 [veliparib, Veliparib]
[1]
  Preliminary response rate: 88%
[2]; considered not related or probably not related to veliparib and FOLFIRI
  Patients with TEAEs that led to death within 30 days of the last veliparib dose: Four
[2]; disease progression, considered not related or probably not related
  Patients with a TEAE that led to death within 63 days after the last veliparib dose: One
[2]; [6]
  TEAE Alopecia: 16 (51.6) n (%)
  TEAE Anaemia: 15 (48.3) n (%)
  TEAE Constipation: 9 (29.0) n (%)
  TEAE Decreased appetite: 7 (22.5) n (%)
  TEAE Diarrhoea: 17 (54.8) n (%)
  TEAE Fatigue: 13 (41.9) n (%)
  TEAE Nausea: 23 (74.1) n (%)
  TEAE Neutropenia: 25 (80.6) n (%)
  TEAE Vomiting: 14 (45.1) n (%)
[2]; [7]
  TEAE Alopecia: 0 (0.0) n (%)
  TEAE Anaemia: 5 (16.1) n (%)
  TEAE Constipation: 0 (0.0) n (%)
  TEAE Decreased appetite: 0 (0.0) n (%)
  TEAE Diarrhoea: 5 (16.1) n (%)
  TEAE Fatigue: 0 (0.0) n (%)
  TEAE Nausea: 1 (3.2) n (%)
  TEAE Neutropenia: 17 (54.8) n (%)
  TEAE Vomiting: 1 (3.2) n (%)
[2]; [8]
  TEAE Alopecia: 31 (46.2) n (%)
  TEAE Anaemia: 27 (40.2) n (%)
  TEAE Constipation: 18 (26.8) n (%)
  TEAE Decreased appetite: 18 (26.8) n (%)
  TEAE Diarrhoea: 40 (59.7) n (%)
  TEAE Fatigue: 27 (40.2) n (%)
  TEAE Nausea: 41 (61.1) n (%)
  TEAE Neutropenia: 41 (61.1) n (%)
  TEAE Vomiting: 32 (47.7) n (%)
[2]; [9]
  TEAE Alopecia: 0 (0.0) n (%)
  TEAE Anaemia: 7 (10.4) n (%)
  TEAE Constipation: 1 (1.4) n (%)
  TEAE Decreased appetite: 0 (0.0) n (%)
  TEAE Diarrhoea: 5 (7.4) n (%)
  TEAE Fatigue: 3 (4.4) n (%)
  TEAE Nausea: 2 (2.9) n (%)
  TEAE Neutropenia: 26 (38.8) n (%)
  TEAE Vomiting: 3 (4.4) n (%)
[2]; [10]
  TEAE Alopecia: 9 (36.0) n (%)
  TEAE Anaemia: 14 (56.0) n (%)
  TEAE Constipation: 10 (40.0) n (%)
  TEAE Decreased appetite: 13 (52.0) n (%)
  TEAE Diarrhoea: 16 (64.0) n (%)
  TEAE Fatigue: 17 (68.0) n (%)
  TEAE Nausea: 15 (60.0) n (%)
  TEAE Neutropenia: 20 (80.0) n (%)
  TEAE Vomiting: 12 (48.0) n (%)
[2]; [11]
  TEAE Alopecia: 0 (0.0) n (%)
  TEAE Anaemia: 2 (8.0) n (%)
  TEAE Constipation: 1 (4.0) n (%)
  TEAE Decreased appetite: 0 (0.0) n (%)
  TEAE Diarrhoea: 0 (0.0) n (%)
  TEAE Fatigue: 0 (0.0) n (%)
  TEAE Nausea: 1 (4.0) n (%)
  TEAE Neutropenia: 13 (52.0) n (%)
  TEAE Vomiting: 2 (8.0) n (%)
[2]; [12]
  TEAE Alopecia: 40 (43.5) n (%)
  TEAE Anaemia: 41 (44.6) n (%)
  TEAE Constipation: 28 (30.4) n (%)
  TEAE Decreased appetite: 31 (33.6) n (%)
  TEAE Diarrhoea: 56 (60.9) n (%)
  TEAE Fatigue: 44 (47.8) n (%)
  TEAE Nausea: 56 (60.9) n (%)
  TEAE Neutropenia: 61 (66.3) n (%)
  TEAE Vomiting: 44 (47.8) n (%)
[2]; [13]
  TEAE Alopecia: 0 (0.0) n (%)
  TEAE Anaemia: 9 (9.8) n (%)
  TEAE Decreased appetite: 0 (0.0) n (%)
  TEAE Diarrhoea: 5 (5.4) n (%)
  TEAE Fatigue: 3 (3.2) n (%)
  TEAE Nausea: 3 (3.2) n (%)
  TEAE Neutropenia: 39 (42.4) n (%)
  TEAE Vomiting: 5 (5.4) n (%)
[2]; [14]
  Grade 3 or 4 TEAE anaemia: 9.8%
  Grade 3 or 4 TEAE neutropenia: 42.4%
  Patients who discontinued veliparib due to TEAEs: 5.4%
  Patients with ≥1 grade 3 or 4 TEAEs: 67.4%
  Patients with ≥1 treatment-emergent serious AEs (SAEs): 38.0%
  Serious AE PD: 2.2%
  Serious AE abdominal pain: 2.2%
  Serious AE dehydration: 2.2%
  Serious AE febrile neutropenia: 2.2%
  Serious AE intestinal obstruction: 2.2%
  Serious AE malignant neoplasm progression: 2.2%
  Serious AE nausea: 2.2%
  Serious AE pyrexia: 4.3%
  Serious AE vomiting: 3.3%
[2]; [15]
  TEAE alopecia, patients: 43.5%
  TEAE anaemia, patients: 44.6%
  TEAE diarrhoea, patients: 60.9%
  TEAE fatigue, patients: 47.8%
  TEAE nausea, patients: 60.9%
  TEAE neutropenia, patients: 66.3%
  TEAE vomiting, patients: 47.8%
[2]; veliparib plus FOLFIRI, treated patients (92)
  Patients who experienced one or more TEAEs: All treated patients
[3]
  Tolerability: well tolerated
[4]
  Dose proportionality of veliparib exposure (Cmax, AUC): approximately dose-proportional; also recorded: approximate dose proportionality
[5]; human, in vivo
  Recommended phase 2 dose (RP2D) of veliparib: 200 mg BID
[5]; veliparib 10–270 mg BID plus FOLFIRI, Bayesian CRM
  Maximum tolerated dose (MTD): not reached

From PMC5933261, “A phase 1 dose-escalation study of veliparib with bimonthly FOLFIRI in patients with advanced solid tumours” (British Journal of Cancer, 2018)
